Test results reported in US12268666B2, “Spray-dried dispersions, formulations, and polymorphs of (S)-5-amino-3-(4-((5-fluoro-2-methoxybenzamido)methyl)phenyl)-1-(1,1,1-trifluoropropan-2-yl)-1H-pyrazole-4-carboxamide” (Loxo Oncology, Inc., priority 2018, dated 2025).

Experiments:
PLCγ2 = PLCγ2 Y1217 phosphorylation in Ramos RA1 cells; format: cell-based; conditions: anti-human IgM stimulation
Method: Ramos RA1 cells, obtained from ATCC (CRL-1596), are grown in RPMI 1640+10% fetal bovine serum (FBS) at 37° C. in a CO2 incubator. […] Nine hundred μL of cell/well are added to 24 well plates and 100 uL of 10× stocks of inhibitor are added. The 10× compound of Formula I stocks are prepared in 1% DMSO, by doing a 1:3 dilution series with final concentrations in the wells ranging between 900 nM to 0.41 nM. […] All samples are tested in triplicate. After 2 hours (starvation and dosing) sodium orthovanadate is added to a final concentration of 200 μM and incubated for 30 more min. Cells are then stimulated with 4 uL of goat F(ab′)2 anti-human IgM (Jackson ImmunoResearch #109-006-129) for 5 min at room temperature, spun down, resuspended in 100 uL of […]™ M (Sigma #C2978) containing 5× Halt phosphatase and protease inhibitor cocktails (Pierce #78442), and stored at −80° C. Lysates are quantified by BCA (Pierce #23225) and analyzed by Simple Western (Protein Simple) with the following antibodies: anti-phospho-BTK (Y223) (Cell Signaling Technologies (CST) #5082), anti-BTK (CST #8547), anti-phospho-PLCγ2 (Y1217) (CST 3871), anti-PLCγ2 (CST 3872), and anti-GAPDH (GAPDH refers to glyceraldehyde 3-phosphate dehydrogenase) (Novus #MAB5718-SP). […] Results are analyzed with Compass software (Protein Simple), and IC50 values are calculated on GraphPad Prism 7.04 software.

TMD8 tumor xenografts = assay: Tumor growth in TMD8 human diffuse large B cell lymphoma xenograft model; format: in vivo
Method: The human diffuse large B cell lymphoma TMD8 cells are maintained in suspension in RPMI 1640 with 10% Fetal Calf Serum (FCS) and 1% of Glutamax. The cells are transferred to a 50 mL Falcon tube and centrifuged at 1200 rpm for 5 min. The supernatant is removed and the cell pellet resuspended in PBS before being mixed with Matrigel (1/1, v/v). The cell suspension:Matrigel mixture at a final target cell concentration of 40×10^6 cells/mL is kept on ice until the s.c. injections (250 μL/mouse) to maintain the Matrigel solution in a liquid state.
The animals are female BalB/c mice aged 9 weeks-old at the day of injection. The mice are housed in individually ventilated cage racks with HEPA filtered air supply and all materials that contact the immunodeficient animals are steam sterilized. This includes cages, bedding, water and feed. The animal room conditions are set as follows. The temperature is 22±2° C., and the relative humidity is 50±10%. The light/dark cycle is 12 h/12 h, and the air change rate is 12 to 15 cycles/hour of filtered, 100% fresh air. All animals had free access to sterilized water and irradiated controlled food (reference A04CSafe, Augy-France).
The compound of Formula I is formulated in methylcellulose/Tween80/Water (0.6%/0.5%/98.5%; w/w/v). The vehicle for the dosing of control group is methylcellulose/Tween 80/Water (0.6%/0.5%/98.5%; w/w/v), 10 mL/kg. 151.4 mg of the compound of Formula I are weighed and formulated with 50.4 mL of vehicle to obtain a solution at 3 mg/mL of free base. For the 1 mg/mL suspension preparation, 50.1 mg of the compound of Formula I are weighed and solubilized in 50.1 mL of vehicle. […]
Tumor width and length are measured with digital calipers. The tumor volume in mm^3 is calculated by the formula: Volume=0.52×(width)^2×length[…], width and length measured in mm. […]
Tumors are collected from each mouse at Day 28 post the cell injection. […] Tumor weight statistical analysis between each group is determined by a 1-way ANOVA and by 2-Way ANOVA with repeated measures for the mice weight and the tumor volume monitoring, followed by a Dunnett's test. […]

BTK C481S = BTK C481S (Homo sapiens, UniProt Q06187, C481S); assay: Y223 autophosphorylation in HEK293 cells stably expressing BTK C481S; format: cell-based; design: expressed in transfected cells; host or cells: HEK293; conditions: C481S mutant, 2 hr treatment, signal normalized to total BTK
BTK C481S, sequence (Q06187 whole entry C481S): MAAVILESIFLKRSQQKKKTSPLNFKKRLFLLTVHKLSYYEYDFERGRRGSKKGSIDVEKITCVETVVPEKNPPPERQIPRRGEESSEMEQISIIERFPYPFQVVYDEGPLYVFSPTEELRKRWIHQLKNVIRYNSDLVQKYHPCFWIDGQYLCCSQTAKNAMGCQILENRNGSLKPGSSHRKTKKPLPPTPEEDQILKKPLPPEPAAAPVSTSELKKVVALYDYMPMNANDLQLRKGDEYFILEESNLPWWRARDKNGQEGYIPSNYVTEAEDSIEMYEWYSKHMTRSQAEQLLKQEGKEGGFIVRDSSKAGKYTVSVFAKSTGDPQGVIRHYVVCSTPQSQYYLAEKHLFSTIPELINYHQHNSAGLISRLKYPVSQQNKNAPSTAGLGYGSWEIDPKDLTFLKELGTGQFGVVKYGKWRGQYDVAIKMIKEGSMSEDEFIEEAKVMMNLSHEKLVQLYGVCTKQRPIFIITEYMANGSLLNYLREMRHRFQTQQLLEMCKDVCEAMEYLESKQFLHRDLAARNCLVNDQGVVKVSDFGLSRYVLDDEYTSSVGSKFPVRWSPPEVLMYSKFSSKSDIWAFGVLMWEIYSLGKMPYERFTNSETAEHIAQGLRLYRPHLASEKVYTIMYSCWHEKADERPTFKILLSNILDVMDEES
Method: HEK293 cell lines stably expressing BTK wild type and the mutant form C481S are generated using standard transfection methods. For assessment of cellular inhibition potency, cells are grown in DMEM +10% Fetal Bovine Serum (FBS)+1 μg/ml puromycin (complete growth media) at 37° C. in a CO2 incubator. Cells are harvested according to standard protocols using TRYPLE™ (Gibco #12604-013), counted, resuspended in complete growth media, and added to 6 well assay plates at 4×10 ^5 cell/well in 2 mL. Plates are incubated overnight at 37° C. with 5% CO2. […] All samples are tested in triplicate. Following compound incubation, the growth medium is discarded, cells are washed with DPBS (1×) (Gibco #14190-144) and lysed in 1 mL of […]™ M (Sigma #C2978) containing 1× Halt phosphatase and protease inhibitor cocktails (Pierce #78442). Plates are placed on ice for 1 hr with gentle agitation and stored at −80° C. overnight. The next day, cell lysates are placed in 1.5 mL tubes and cleared by centrifugation at 16,000×g for 10 min at 4° C. Supernatants are quantified by BCA (Pierce #23225) and stored at −80° C. Samples are analyzed by Simple Western (Protein Simple) with anti-phospho-BTK (Y223) (Cell Signaling Technologies (CST) #5082) and anti-BTK (CST #8547) (FIGS. 10A and 10B). β-actin is used as a loading control and detected by regular Western blot with an anti-3-actin antibody (CST #4970).

In the case of `COc1ccc(F)cc1C(=O)NCc1ccc(-c2nn([C@@H](C)C(F)(F)F)c(N)c2C(N)=O)cc1` [compound of Formula I, (S)-5-amino-3-(4-((5-fluoro-2-methoxybenzamido)methyl)phenyl)-1-(1,1,1-trifluoropropan-2-yl)-1H-pyrazole-4-carboxamide], the IC50 (PLCγ2) is reported as 8.2 nM, the “TGI vs the vehicle treated group” value (TMD8 tumor xenografts; 10 mg/kg oral BID for 14 days) is reported as 35% and the “TGI vs the vehicle treated group” value (TMD8 tumor xenografts; 30 mg/kg oral BID for 14 days) is reported as 87%. The tolerability (TMD8 tumor xenografts; chronic oral BID administration for 14 days at 10 and 30 mg/kg) was “well tolerated” and the IC50 (BTK C481S) was 8.8 ± 1.8 nM.
